Measured values reported in article PMC9388906, “Dual inhibition of the Echinococcus multilocularis energy metabolism” (Frontiers in Veterinary Science, 2022).

What was measured:
Format in all cases: cell-based, Echinococcus multilocularis
[1] = test system: E. multilocularis metacestodes; assay: PGI assay, single and combination treatment under normoxic and anaerobic conditions; conditions: 5 days
Procedure: The PGI assay measures the amount of PGI that metacestodes release into the medium when damaged ([17], [32]). The purification and in vitro drug incubation of E. multilocularis metacestodes was conducted according to Stadelmann et al. ([32]). In short, cultures were applied for in vitro drug testing at the age of 6-8 weeks. E. multilocularis metacestodes were therefore purified by the addition of 2% saccharose and washed extensively with PBS. Purified metacestodes were suspended 1:3 with DMEM (without phenol red, supplemented with 100 U/mL penicillin, 100 μg/mL streptomycin) and distributed in 48-well plates (1 mL/well, thus 300 μL pure metacestode vesicles per well). […] The corresponding DMSO concentration was used as negative control and Tx-100 (0.1% final concentration) was used for total damage (positive control). […] After 5 days, relative PGI activities were measured and calculated as percentage of the Tx-100 control as described previously in Rufener et al. ([17]). They were calculated as mean values and standard deviations for each triplicate. EC50 calculations were calculated based on logit-log transformed values in Microsoft Office Excel 2010. EC50 measurements were performed twice, and averages and standard deviations of these repeated tests are given.
For double inhibition of the mitochondrial energy pathways of E. multilocularis, quinazoline as an inhibitor of the anaerobic MD ([29]) was applied in combination with ELQ-400 as an inhibitor of the ETC. Both compounds were tested either alone or in combination at 10 μM with the above-described PGI assay for 5 days for their activity against E. multilocularis metacestodes. PGI assays were done in triplicates and two times independently. […] Results of the assays were calculated as mean values and standard deviations for each biological triplicate were calculated as relative percentage to the Tx-100 control. To assess direct effects on the MD, succinate levels were measured in the supernatants of the PGI assay, as described below. […]

[2] = test system: E. multilocularis GL cells (isolate H95); assay: GL cell viability assay (CellTiter-Glo), isolate H95; conditions: isolate H95; 0.1 μM; 5 days; nitrogen atmosphere; mean (SD); active if <30%
Procedure: To assess the in vitro efficacy of ELQs against E. multilocularis, (a) the damage-marker phosphoglucose isomerase (PGI) assay was applied against metacestodes, and (b) the germinal layer (GL) cell viability assay was applied to measure effects on isolated GL cells. Both assays are described in more detail below. The drug testing strategy was as follows: PGI assay was first conducted for overview screening at 10 μM with the parasite isolates H95 and Sval. The GL cell viability assay was performed at 0.1 μM with both isolates H95 and Sval.
The isolation of E. multilocularis GL cells was done as described previously ([17]) with minor modifications. Fifteen units of GL cells were distributed to each well of a 384 well plate in a total volume of 12.5 μL conditioned medium. The different ELQs were added to the wells to 0.1 μM, in quadruplicates. As a negative control 0.1% DMSO was used. The 384-well plate was incubated for 5 days at 37°C under humid nitrogen atmosphere. Thereafter, viability of the GL cells under different drug treatments was assessed by CellTiter-Glo® (Promega AG, Dübendorf, Switzerland). The CellTiter-Glo reagent was complemented with 1% Tx-100. The luciferase bioluminescence was measured at 530 nm by using the Enspire multilabel reader (PerkinElmer Life Sciences, Schwerzenbach, Switzerland). Using Microsoft Excel, the blank values were subtracted from the experimental values and the relative viability compared to DMSO was calculated. Viabilities were calculated as mean values and standard deviations for each quadruplicate.

[3] = test system: E. multilocularis metacestodes; assay: Transmission electron microscopy of treated metacestodes; conditions: 5 days
Procedure: E. multilocularis metacestodes treated with ELQ-400 (0.2, 1 and 2 μM, 5 days of incubation) under normoxic (37°C, 21% O2, 5% CO2, humid atmosphere) and anaerobic conditions (37°C, 80% N2, 10% CO2, and 10% H2, humid atmosphere) were processed for TEM as previously described ([17]). Metacestodes were washed in 100 mM sodium cacodylate buffer (pH 7.3), and were fixed in 2% glutaraldehyde in cacodylate buffer overnight at 4°C. Following several washes in cacodylate buffer, metacestodes were post-fixed in 2% osmium tetroxide in cacodylate buffer for 3–4 h, washed in water, and samples were treated with Uranyless™ solution (EMS, Hatfield, PA, USA) for 20 min, followed by several washes in distilled water. Specimens were dehydrated in a graded series of ethanol and were embedded in EPON-812 epoxy resin. Polymerization of the resin was carried out at 60°C for 24 h. Ultrathin sections were cut on a Reichert and Jung (Vienna) microtome, and were allowed to settle onto 400 mesh formvar carbon coated grids (Plano GmbH, Wetzlar, Germany). Specimens were contrasted with Uranyless and lead citrate, and were viewed on a FEI Morgagni Transmission Electron Microscope operating at 80 kV.

Cc1[nH]c2cc(F)cc(F)c2c(=O)c1-c1ccc(Oc2ccc(OC(F)(F)F)cc2)cc1 [ELQ-400]
PGI release of metacestodes relative to Tx-100 ([1]; 10 μM each, anaerobic (0% O2)): significantly reduced
PGI release of metacestodes relative to Tx-100 ([1]; 10 μM, normoxic (21% O2)): active
GL cells, viability via ATP measurements, relative to DMSO control [2]: 8.4 (4.8) %
Ultrastructural effects on metacestodes (TEM) ([3]; 0.2 μM, normoxic (21% O2)): did not show obvious ultrastructural alterations
Ultrastructural effects on metacestodes (TEM): overall structural organization, especially of the GL ([3]; 1 μM, normoxic (21% O2)): partially compromised
Ultrastructural effects on metacestodes (TEM) ([3]; 2 μM, normoxic (21% O2)): partial separation of the GL and the LL
Ultrastructural effects on metacestodes (TEM) ([3]; anaerobic conditions, compared with damage at 1 and 2 μM under normoxic conditions): did not exhibit such alterations
